Assays:
Format in all cases: cell-based
[1] = system: F-actin in MSCs; experiment: dSTORM super-resolution imaging and DBSCAN clustering of F-actin; conditions: CK869 treatment for 2 hours
Description: Sample Preparation for Imaging of F-Actin in Cells on Hydrogels. To prepare samples for F-actin imaging, glass bottom dishes (No 0., 35 mm; MatTek) were silanized, and a thin layer of PEG-DA hydrogel with varied elasticity was formed as described above. After cell seeding on hydrogels and culturing cells in the presence of DMSO or CK869, cells were permeabilized with 0.0015% saponin (Sigma) in a cytoskeleton buffer (10 mM MES, pH 6.0, 150 mM NaCl, 5 mM EGTA, 5 mM glucose, and 5 mM MgCl2) for 4 minutes at room temperature. The samples were then washed with the cytoskeleton buffer 3 times and fixed with 4% paraformaldehyde in the cytoskeleton buffer for 20 minutes at room temperature. […]
Super-Resolution Imaging of F-actin. […] 50,000 images were recorded for each cell in each condition; after rejecting overtly dense/bleached images approx. 30,000 images were analyzed in each cell/condition for localization detection in post-processing using ThunderSTORM (ImageJ), with the following settings in brief: wavelet filtering (B-spline order 3, scale 2); integrated Gaussian fitting (radius: 3 pixels, initial sigma: 1.6 pixels); local maximum with 8-neighborhood; camera pixel size 160 nm. […]
Nanoscale Clustering Analysis of F-actin. […] The percentage of F-actin localizations that belong to each cluster group per cell was then quantified and used for statistical analysis.

[2] = system: membrane-cytoskeleton attachment in MSCs; experiment: Force for membrane tether formation by AFM; conditions: CK869 treatment for 2 hours; within 4 hours of cell adhesion
Description: Measurement of Force for Membrane Tether Formation by Atomic Force Microscopy (AFM). Membrane tethering force was measured by using 3D-BIO AFM (Asylum Research, Oxford Instruments) with TR400PSA cantilevers (OTR4; spring constant=30 pN/nm). Indentation depth for each measurement was 4 μm with a velocity of 2 μm/s, and the force curve for each measurement was recorded by the AFM software (AR14). For each cell, 25-50 force curves were analyzed. In force mode, the piezotranducer (PZT) was set to drive the cantilever to approach, touch, make an indentation, and retract over a predefined distance in the optical axis perpendicular to the cell surface. The force curve was generated from the recorded vertical-axis movement of the PZT and the deflection of the cantilever with a known dimension and a spring constant. In the force curve representing the retraction of the cantilever from a cell, a sudden release of force occurred at the rupture of a membrane tether was quantified via a custom MATLAB program.

[3] = system: Primary human MSCs; experiment: EV secretion per cell from MSCs on hydrogel substrates, nanoparticle tracking analysis; conditions: 5 μM CK869, ~4 hour adhesion, EV collection after 24 hours

## COc1ccc(N2C(=O)CSC2c2cccc(Br)c2)c(OC)c1 (stereo not shown) [CK869]
[1]
  distribution of F-actin clusters: did not alter the distribution of different F-actin clusters on both substrates
[2]
  force of membrane tether formation: slightly decreased tethering on the soft hydrogel
[3]; soft hydrogel
  EV secretion on the soft hydrogel: to a lesser but significant extent
[3]; stiff hydrogel
  EV secretion on the stiff hydrogel: increased EV secretion on the stiff hydrogel
